Laboratory results taken from US20170129916A1, “NOVEL BETULINIC PROLINE IMIDAZOLE DERIVATIVES AS HIV INHIBITORS” (HETERO RESEARCH FOUNDATION, priority 2014, published 2017).

How the values were obtained:
[1] = system: HIV-1 strains, for e.g., 92HT599; test: Antiviral activity: p24 estimation in MT-2 cells infected with HIV-1; type: cell-based; settings: Human immunodeficiency virus 1, MT2, MT-2 cells infected with HIV-1, p24, ~96 hours; for IC50: read-out: Antiviral activity IC50 (nM) Efficacy IC50
Description: MT-2 cells were infected with required number of TCID50's of HIV-1 strains, for e.g., 92HT599. The infected cells were plated at the concentration of 30, 000 cells per well in a 96 well plate. Test compound was added to the 96 well plate with the final concentration of DMSO (vehicle—not more than 1%). The plates are then incubated in a CO2 incubator for ˜96 hours (˜4 days) for viral infection. At the end of incubation period an aliquot from each well was taken for p24 estimation. The quantitation of p24 is an estimated index for antiviral activity of the compound. Percent inhibition was calculated with reference to control values (vehicle controls).
p-24 estimation was carried out using Advance biosciences kit as per the procedure detailed by supplier.

[2] = Single dose oral pharmacokinetic study; type: in vivo; settings: mouse, mice, 30 mg/kg, plasma; for AUC(0-t): read-out: Mice oral PK @30 mg/kg AUC 0-t; for Cmax: read-out: Mice oral PK @30 mg/kg Cmax
Description: The test item was administered through oral route to animals (rat/mice) at 30 mg/kg dose in a suitable vehicle at 10 ml/kg dose volume. Blood samples (˜50 uL at each time point) were collected from retro-orbital plexus using K3 EDTA as anticoagulant in eppend; orf tubes at defined time intervals under light ether anesthesia. The samples were centrifuged at 3500×g to separate plasma and stored at −80° C. until analysis.
Sample analysis: Test samples were analyzed using LC-MS-MS after developing fit-for-purpose method for each of test compound.

Row | SMILES | IC50 [1] [nM] | AUC(0-t) [2] [µg·h/mL] | Cmax [2] [ng/mL] | inhibition at 0.1 µM ([1]; 0.1 μM) [%] | inhibition at 1 µM ([1]; 1 μM) [%]
1 | C=C(C)[C@@H]1CC[C@]2(C(=O)N3CCC[C@H]3c3ncc(-c4ccccn4)[nH]3)CC[C@]3(C)[C@H](CC[C@@H]4[C@@]5(C)CC[C@H](OC(=O)[C@H]6C[C@@H](C(=O)O)C6(C)C)C(C)(C)[C@@H]5CC[C@]43C)[C@@H]12 [Compound 1, (1R,3S)-2,2-dimethyl-3-((((1R,3aS,5aR,5bR,7aR,9S,11aR,11bR,13aR,13bR)-5a,5b,8,8,11a-pentamethyl-1-(prop-1-en-2-yl)-3a-((S)-2-(5-(pyridin-2-yl)-1H-imidazol-2-yl)pyrrolidine-1-carbonyl)icosahydro-1H-cyclopenta[a]chrysen-9-yl)oxy)carbonyl)cyclobutane-1-carboxylic acid] | 8.06 | 177 | 6290 |  | 
2 | C=C(C)[C@@H]1CC[C@]2(C(=O)N3CCC[C@H]3c3ncc(-c4cccc(F)c4)[nH]3)CC[C@]3(C)[C@H](CC[C@@H]4[C@@]5(C)CC[C@H](OC(=O)[C@H]6C[C@@H](C(=O)O)C6(C)C)C(C)(C)[C@@H]5CC[C@]43C)[C@@H]12 [Compound 4, (1R,3S)-3-((((1R,3aS,5aR,5bR,7aR,9S,11aR,11bR,13aR,13bR)-3a-((S)-2-(5-(3-fluorophenyl)-1H-imidazol-2-yl)pyrrolidine-1-carbonyl)-5a,5b,8,8,11a-pentamethyl-1-(prop-1-en-2-yl)icosahydro-1H-cyclopenta[a]chrysen-9-yl)oxy)carbonyl)-2,2-dimethylcyclobutane-1-carboxylic acid] | 1.67 | 398 | 14800 |  | 
3 | C=C(C)[C@@H]1CC[C@]2(C(=O)N3C[C@H](OCCOC)C[C@H]3c3nc(-c4ccccc4)c[nH]3)CC[C@]3(C)[C@H](CC[C@@H]4[C@@]5(C)CC[C@H](OC(=O)[C@H]6C[C@@H](C(=O)O)C6(C)C)C(C)(C)[C@@H]5CC[C@]43C)[C@@H]12 [Compound 7, (1R,3S)-3-((((1R,3aS,5aR,5bR,7aR,9S,11aR,11b,13aR,13bR)-3a-((2S,4R)-4-(2-methoxyethoxy)-2-(4-phenyl-1H-imidazol-2-yl)pyrrolidine-1-carbonyl)-5a,5b,8,8,11a-pentamethyl-1-(prop-1-en-2-yl)icosahydro-1H-cyclopenta[a]chrysen-9-yl)oxy)carbonyl)-2,2-dimethylcyclobutane-1-carboxylic acid] | 5.5 | 342 | 12800 |  | 
4 | C=C(C)[C@@H]1CC[C@]2(C(=O)N3C[C@H](OCCOC)C[C@H]3c3nc(-c4cccc(F)c4)c[nH]3)CC[C@]3(C)[C@H](CC[C@@H]4[C@@]5(C)CC[C@H](OC(=O)[C@H]6C[C@@H](C(=O)O)C6(C)C)C(C)(C)[C@@H]5CC[C@]43C)[C@@H]12 [Compound 8, (11R,3S)-3-((((1R,3aS,5aR,5bR,7aR,9S,11aR,11bR,13aR,13bR)-3a-((2S,4R)-2-(4-(3-fluorophenyl)-1H-imidazol-2-yl)-4-(2-methoxyethoxy)pyrrolidine-1-carbonyl)-5a,5b,8,8,11a-pentamethyl-1-(prop-1-en-2-yl)icosahydro-1H-cyclopenta[a]chrysen-9-yl)oxy)carbonyl)-2,2-dimethylcyclobutane-1-carboxylic acid] | 61.1 | 1240 | 41300 |  | 
5 | C=C(C)[C@@H]1CC[C@]2(C(=O)N3C[C@H](OCCOC)C[C@H]3c3nc(-c4cccnc4)c[nH]3)CC[C@]3(C)[C@H](CC[C@@H]4[C@@]5(C)CC[C@H](OC(=O)[C@H]6C[C@@H](C(=O)O)C6(C)C)C(C)(C)[C@@H]5CC[C@]43C)[C@@H]12 [Compound 10, (1R,3S)-3-((((1R,3aS,5aR,5bR,7aR,9S,11bR,11bR,13aR,13bR)-3a-((2S,4R)-4-(2-methoxyethoxy)-2-(4-(pyridin-3-yl)-1H-imidazol-2-yl)pyrrolidine-1-carbonyl)-5a,5b,8,8,11a-pentamethyl-1-(prop-1-en-2-yl)icosahydro-1H-cyclopenta[a]chrysen-9-yl)oxy)carbonyl)-2,2-dimethylcyclobutane-1-carboxylic acid] | 2.82 | 301 | 17900 |  | 
6 | C=C(C)[C@@H]1CC[C@]2(C(=O)N3CCC[C@H]3c3nnc(-c4ccccc4)o3)CC[C@]3(C)[C@H](CC[C@@H]4[C@@]5(C)CC[C@H](OC(=O)[C@H]6C[C@@H](C(=O)O)C6(C)C)C(C)(C)[C@@H]5CC[C@]43C)[C@@H]12 [Compound 11, (1R,3S)-2,2-dimethyl-3-((((1R,3aS,5aR,5bR,7aR,9S,11aR,11bR,13aR,13bR)-5a,5b,8,8,11a-pentamethyl-3a-((S)-2-(5-phenyl-1,3,4-oxadiazol-2-yl)pyrrolidine-1-carbonyl)-1-(prop-1-en-2-yl)icosahydro-1H-cyclopenta[a]chrysen-9-yl)oxy)carbonyl)cyclobutane-1-carboxylic acid] | 5.96 | 403 | 16300 |  | 
7 | C=C(C)[C@@H]1CC[C@]2(C(=O)N3CCC[C@H]3c3nc(C(C)(C)C)co3)CC[C@]3(C)[C@H](CC[C@@H]4[C@@]5(C)CC[C@H](OC(=O)[C@H]6C[C@@H](C(=O)O)C6(C)C)C(C)(C)[C@@H]5CC[C@]43C)[C@@H]12 [Compound 12, (1R,3S)-3-((((1R,3aS,5aR,5bR,7aR,9S,11aR,11bR,13aR,13bR)-3a-((S)-2-(4-(tert-butyl)oxazol-2-yl)pyrrolidine-1-carbonyl)-5a,5b,8,8,11a-pentamethyl-1-(prop-1-en-2-yl)icosahydro-1H-cyclopenta[a]chrysen-9-yl)oxy)carbonyl)-2,2-dimethylcyclobutane-1-carboxylic acid] | 139 | 395 | 13200 |  | 
8 | C=C(C)[C@@H]1CC[C@]2(C(=O)N3CCC[C@H]3c3nc(C(C)C)c[nH]3)CC[C@]3(C)[C@H](CC[C@@H]4[C@@]5(C)CC[C@H](OC(=O)[C@H]6C[C@@H](C(=O)O)C6(C)C)C(C)(C)[C@@H]5CC[C@]43C)[C@@H]12 [Compound 14, (1R,3S)-3-((((1R,3aS,5aR,5bR,7aR,9S,11aR,11bR,13aR,13bR)-3a-((S)-2-(4-isopropyl-1H-imidazol-2-yl)pyrrolidine-1-carbonyl)-5a,5b,8,8,11a-pentamethyl-1-(prop-1-en-2-yl)icosahydro-1H-cyclopenta[a]chrysen-9-yl)oxy)carbonyl)-2,2-dimethylcyclobutane-1-carboxylic acid] | 0.138 | 437 | 19600 |  | 
9 | C=C(C)[C@@H]1CC[C@]2(C(=O)N3CCC[C@H]3c3ncc(-c4ccccc4)o3)CC[C@]3(C)[C@H](CC[C@@H]4[C@@]5(C)CC[C@H](OC(=O)[C@H]6C[C@@H](C(=O)O)C6(C)C)C(C)(C)[C@@H]5CC[C@]43C)[C@@H]12 [Compound 15, (1R,3S)-2,2-dimethyl-3-((((1R,3aS,5aR,5bR,7aR,9S,11aR,11bR,13aR,13bR)-5a,5b,8,8,11a-pentamethyl-3a-((S)-2-(5-phenyloxazol-2-yl)pyrrolidine-1-carbonyl)-1-(prop-1-en-2-yl)icosahydro-1H-cyclopenta[a]chrysen-9-yl)oxy)carbonyl)cyclobutane-1-carboxylic acid] | 124 | 208 | 6510 |  | 
10 | C=C(C)[C@@H]1CC[C@]2(C(=O)N3C[C@H](OCCOC)C[C@H]3c3nc(-c4cccc(F)c4)c[nH]3)CC[C@]3(C)[C@H](CC[C@@H]4[C@@]5(C)CC[C@H](OC(=O)CC(C)(C)C(=O)O)C(C)(C)[C@@H]5CC[C@]43C)[C@@H]12 [Compound 44, 4-(((1R,3aS,5aR,5bR,7aR,9S,11aR,1bR,13aR,13bR)-3a-((2S,4R)-2-(4-(3-fluorophenyl)-1H-imidazol-2-yl)-4-(2-methoxyethoxy)pyrrolidine-1-carbonyl)-5a,5b,8,8,11a-pentamethyl-1-(prop-1-en-2-yl)icosahydro-1H-cyclopenta[a]chrysen-9-yl)oxy)-2,2-dimethyl-4-oxo butanoic acid] | 27.6 |  |  |  | 
11 | CC1([C@@H]2CC[C@]3(C(=O)N4CCC[C@H]4c4nc5ccccc5[nH]4)CC[C@]4(C)[C@H](CC[C@@H]5[C@@]6(C)CC[C@H](OC(=O)[C@H]7C[C@@H](C(=O)O)C7(C)C)C(C)(C)[C@@H]6CC[C@]54C)[C@@H]23)CC1 [Compound 61, (1R,3S)-3-((((1R,3aS,5aR,5bR,7aR,9S,11aR,11bR,13aR,13bR)-3a-((S)-2-(1H-benzo[d]imidazol-2-yl)pyrrolidine-1-carbonyl)-5a,5b,8,8,11a-pentamethyl-1-(1-methylcyclopropyl)icosahydro-1H-cyclopenta[a]chrysen-9-yl)oxy)carbonyl)-2,2-dimethylcyclobutane-1-carboxylic acid] | 56.9 |  |  | 100 | 100
